In ChEMBL document CHEMBL2046429, “Synthesis and biological evaluation of N-aryl salicylamides with a hydroxamic acid moiety at 5-position as novel HDAC-EGFR dual inhibitors” (Bioorg Med Chem, 2012):

Tests used:
Histone deacetylase = assay: Inhibition of HDAC derived from human HeLa cell nuclear extract using Boc-Lys(acetyl)-AMC as substrate incubated for 5 mins prior to substrate addition measured after 30 mins by fluorimetry; format: protein assay
[1] = molecular target: Epidermal growth factor receptor (Homo sapiens, UniProt P00533); assay: Inhibition of EGFR derived from human A431 cell membrane assessed as inhibition of poly-Glu-Tyr phosphorylation after 30 mins by ELISA assay; format: cell-based, A-431
A549 = assay: Antiproliferative activity against human A549 cells after 48 hrs by MTT assay; format: functional, cell-based; settings: A549, 48 h
A-431 = assay: Antiproliferative activity against human A431 cells after 48 hrs by MTT assay; format: functional, cell-based; settings: A-431, 48 h
HL-60 = assay: Antiproliferative activity against human HL60 cells after 48 hrs by MTT assay; format: functional, cell-based; settings: HL-60, 48 h

Sequence of Epidermal growth factor receptor (P00533 whole entry): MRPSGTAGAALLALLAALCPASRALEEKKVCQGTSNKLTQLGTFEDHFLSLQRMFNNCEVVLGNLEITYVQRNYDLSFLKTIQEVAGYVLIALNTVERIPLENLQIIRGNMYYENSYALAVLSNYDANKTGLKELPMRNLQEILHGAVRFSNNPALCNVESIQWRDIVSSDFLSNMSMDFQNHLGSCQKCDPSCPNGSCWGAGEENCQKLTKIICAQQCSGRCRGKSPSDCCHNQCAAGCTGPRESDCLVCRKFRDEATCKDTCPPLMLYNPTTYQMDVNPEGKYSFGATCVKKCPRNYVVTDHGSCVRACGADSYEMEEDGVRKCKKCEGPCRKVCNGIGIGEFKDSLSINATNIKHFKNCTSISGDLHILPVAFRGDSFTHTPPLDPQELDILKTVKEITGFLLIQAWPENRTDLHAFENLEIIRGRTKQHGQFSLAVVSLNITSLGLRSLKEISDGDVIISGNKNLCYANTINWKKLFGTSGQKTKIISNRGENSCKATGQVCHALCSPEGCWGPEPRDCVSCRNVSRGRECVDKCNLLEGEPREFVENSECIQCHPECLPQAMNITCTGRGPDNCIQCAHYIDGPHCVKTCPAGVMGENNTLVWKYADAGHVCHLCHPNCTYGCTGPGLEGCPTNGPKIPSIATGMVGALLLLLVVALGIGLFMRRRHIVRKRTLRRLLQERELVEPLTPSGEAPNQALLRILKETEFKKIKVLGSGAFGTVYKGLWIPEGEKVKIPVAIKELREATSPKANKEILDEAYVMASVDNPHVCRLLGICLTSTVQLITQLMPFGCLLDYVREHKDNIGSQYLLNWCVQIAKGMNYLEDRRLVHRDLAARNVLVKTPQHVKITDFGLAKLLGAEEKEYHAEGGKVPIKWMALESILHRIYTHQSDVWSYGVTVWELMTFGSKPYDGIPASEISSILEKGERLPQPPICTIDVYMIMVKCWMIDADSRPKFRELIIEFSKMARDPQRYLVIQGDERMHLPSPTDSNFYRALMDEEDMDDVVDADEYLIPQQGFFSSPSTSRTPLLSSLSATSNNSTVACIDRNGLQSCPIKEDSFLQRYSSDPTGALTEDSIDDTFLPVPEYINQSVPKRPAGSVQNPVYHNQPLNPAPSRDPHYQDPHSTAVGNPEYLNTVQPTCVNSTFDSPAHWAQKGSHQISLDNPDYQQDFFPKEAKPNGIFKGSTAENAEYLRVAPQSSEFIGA

SMILES	IC50 (Histone deacetylase)	IC50 [1]	IC50 (A549)	IC50 (A-431)	IC50 (HL-60)
O=C(CCCCCC(=O)Nc1ccc(O)c(C(=O)Nc2ccc(F)c(Cl)c2)c1)NO	3.02 µM	3.53 µM	21.1 µM	3.48 µM	> 100 µM
C#Cc1cccc(NC(=O)c2cc(NC(=O)CCCCCC(=O)NO)ccc2O)c1	4.09 µM	3.31 µM	76.2 µM	5.75 µM	> 100 µM
O=C(CCCCCC(=O)Nc1ccc(O)c(C(=O)Nc2ccc(Cl)c(Cl)c2)c1)NO	3.65 µM	1.8 µM	17.8 µM	3.8 µM	> 100 µM
O=C(CCCCCC(=O)Nc1ccc(O)c(C(=O)Nc2ccc(Cl)c(C(F)(F)F)c2)c1)NO	3.48 µM	1.41 µM	24.1 µM	4.14 µM	> 100 µM
O=C(CCCCCC(=O)Nc1ccc(O)c(C(=O)Nc2ccc(OCc3cccc(F)c3)c(Cl)c2)c1)NO	3.01 µM	1.1 µM	12.4 µM	2.6 µM	> 100 µM
C#Cc1cccc(NC(=O)c2cc(NC(=O)CCCCCCC(=O)NO)ccc2O)c1	2.03 µM	2.25 µM	43.6 µM	6.11 µM	> 100 µM
COc1cc(O)c(C(=O)Nc2ccc(F)c(Cl)c2)cc1NC(=O)CCCCCC(=O)NO	1.09 µM				
C#Cc1cccc(NC(=O)c2cc(NC(=O)CCCCCC(=O)NO)c(OC)cc2O)c1	1.86 µM	1.12 µM	18.4 µM	4.68 µM	28.6 µM
C#Cc1cccc(NC(=O)c2cc(NC(=O)CCCCCC(=O)NO)ccc2OC)c1	0.56 µM	5.16 µM	40.7 µM	4.2 µM	7.1 µM
C#Cc1cccc(NC(=O)c2cc(OCCCCCCC(=O)NO)ccc2O)c1	1.21 µM	0.9 µM	15.5 µM	1.88 µM	30.9 µM

More lines, in order of falling IC50 [1], values ahead:

IC50 (Histone deacetylase)	IC50 [1]	IC50 (A549)	IC50 (A-431)	IC50 (HL-60)	SMILES
3.27 µM	6.17 µM	37.6 µM	7.08 µM	> 100 µM	C#Cc1cccc(NC(=O)c2cccc(NC(=O)CCCCCC(=O)NO)c2)c1
3.19 µM	4.2 µM	25.7 µM	2.75 µM	> 100 µM	O=C(CCCCCC(=O)Nc1ccc(O)c(C(=O)Nc2cccc(C(F)(F)F)c2)c1)NO
1.89 µM	2.34 µM	14.6 µM	5.85 µM	20.3 µM	O=C(CCCCCC(=O)Nc1ccc(O)c(C(=O)Nc2ccccc2)c1)NO
6.02 µM	2.22 µM	70.1 µM	4.01 µM	> 100 µM	O=C(CCCCCC(=O)Nc1ccc(O)c(C(=O)Nc2ccc(F)c(F)c2)c1)NO
3.59 µM	1.41 µM	37.2 µM	4.28 µM	> 100 µM	O=C(CCCCCC(=O)Nc1ccc(O)c(C(=O)Nc2cccc(F)c2)c1)NO
